Where two headings read alike, the source gives them in different places.
Legend:
primary human T-cells [1] = system: primary human T-cells
primary human T-cells [2] = assay: Proliferation assay after 5 days (CellTiter-Glo, CD3 stimulation; PBS counter screen); format: cell-based; conditions: CD3 stimulation; for Emax: read-out: Emax proliferation (% activation); for EC50: primary human T-cells, CellTiter-Glo after 5 days, EC50 of fitted sigmoidal curve, read-out: Tcell Proliferation CD3 EC50
In short: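 Cpds added to medium-only plates; 5 d culture. Readout CellTiter-Glo 2.0 (equal vol), RT 45 min equilibration, 15 min rocking RT, luminescence. ATP signal taken as cell number.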

[3] = Homo sapiens, T-cell, 120 h, 5 days, normalized to reference compound A1 as stimulator control = 100%, DMSO neutral control

Compound | EC50 (primary human T-cells [1]) [µM] | Emax (primary human T-cells [2]; [3]) [%] | EC50 (primary human T-cells [2]; Homo sapiens, T-cell, 120 h) [µM] | Emax proliferation (% activation) (primary human T-cells [2]; 5 days, normalized to reference compound A1 as stimulator control = 100%, DMSO neutral control) | EC50 (primary human T-cells [2]) [µM]
N[C@H]1CS(=O)(=O)c2cc(F)c(-c3ccn[nH]3)cc2N(Cc2ccc(Cl)cc2)C1=O [Example 37, (3R)-3-amino-5-[(4-chlorophenyl)methyl]-8-fluoro-1,1-dioxo-7-(1H-pyrazol-5-yl)-2,3-dihydro-1λ^6,5-benzothiazepin-4-one] | > 20 | 57 | 15.3 | – | –
CN(C)CCCC(C)(C)c1nnc(-c2cc3c(cc2F)S(=O)(=O)C[C@H](N)C(=O)N3Cc2ccc(Cl)cc2)o1 [Example 143, (3R)-3-amino-5-[(4-chlorophenyl)methyl]-7-[5-[4-(dimethylamino)-1,1-dimethyl-butyl]-1,3,4-oxadiazol-2-yl]-8-fluoro-1,1-dioxo-2,3-dihydro-1λ^6,5-benzothiazepin-4-one] | 1.27 | 77 | 2.39 | – | –
CC(C)(C)c1nnc(-c2cc3c(cc2F)S(=O)(=O)C[C@H](N)C(=O)N3Cc2ccc(S(C)(=O)=O)cc2)o1 [Example 229, (3R)-3-amino-7-(5-tert-butyl-1,3,4-oxadiazol-2-yl)-8-fluoro-5-[(4-methylsulfonylphenyl)methyl]-1,1-dioxo-2,3-dihydro-1λ^6,5-benzothiazepin-4-one] | 2.44 | 116 | 1.68 | – | –
CN1CC(c2nnc(-c3ccc4c(c3)N(Cc3ccc(Cl)cc3)C(=O)[C@@H](N)CS4(=O)=O)o2)CC(F)(F)C1 (stereo partly drawn) [Example 385, (3R)-3-amino-5-[(4-chlorophenyl)methyl]-7-[5-(5,5-difluoro-1-methyl-3-piperidyl)-1,3,4-oxadiazol-2-yl]-1,1-dioxo-2,3-dihydro-1λ^6,5-benzothiazepin-4-one] | 0.895 | 106 | 1.49 | – | –
COCC1(Nc2nnc(-c3ccc4c(c3)N(Cc3ccc(Cl)cc3)C(=O)[C@@H](N)CS4(=O)=O)o2)CC(F)(F)C1 [Example 403, (3R)-3-amino-5-[(4-chlorophenyl)methyl]-7-[5-[[3,3-difluoro-1-(methoxymethyl)cyclobutyl]amino]-1,3,4-oxadiazol-2-yl]-1,1-dioxo-2,3-dihydro-1λ^6,5-benzothiazepin-4-one] | 3.68 | 83 | 1.15 | – | –
CC(C)(C)n1nnc(-c2cc3c(cc2F)[S+]([O-])C[C@H](N)C(=O)N3Cc2ccc(Cl)cc2)n1 (stereo partly drawn) [Example 35, (3R)-3-amino-7-(2-tert-butyltetrazol-5-yl)-5-[(4-chlorophenyl)methyl]-8-fluoro-1-oxo-2,3-dihydro-1λ^4,5-benzothiazepin-4-one] | 7.13 | – | – | 125 | 1.24
CC(C)Oc1ccc(CN2C(=O)[C@@H](N)CS(=O)(=O)c3cc(F)c(-c4noc(C5CN(C)CC(F)(F)C5)n4)cc32)nc1 (stereo partly drawn) [Example 346, (3R)-3-amino-7-[5-(5,5-difluoro-1-methyl-3-piperidyl)-1,2,4-oxadiazol-3-yl]-8-fluoro-5-[(5-isopropoxy-2-pyridyl)methyl]-1,1-dioxo-2,3-dihydro-1λ^6,5-benzothiazepin-4-one] | 5.73 | 100 | 5.65 | – | –
CNC(C)(C)c1nnc(-c2ccc3c(c2)N(Cc2ccc(OC(F)(F)F)cc2)C(=O)[C@@H](N)CS3(=O)=O)o1 [Example 419, (3R)-3-amino-7-[5-[1-methyl-1-(methylamino)ethyl]-1,3,4-oxadiazol-2-yl]-1,1-dioxo-5-[[4-(trifluoromethoxy)phenyl]methyl]-2,3-dihydro-1λ^6,5-benzothiazepin-4-one] | 1.51 | 62 | 7.27 | – | –
N[C@H]1CS(=O)(=O)c2cc(F)c(-c3nnc(N4CCC4)o3)cc2N(Cc2ccc(Cl)cc2)C1=O [Example 191, (3R)-3-amino-7-[5-(azetidin-1-yl)-1,3,4-oxadiazol-2-yl]-5-[(4-chlorophenyl)methyl]-8-fluoro-1,1-dioxo-2,3-dihydro-1λ^6,5-benzothiazepin-4-one] | 11.4 | 184 | 1.28 | – | –
N[C@H]1CS(=O)(=O)c2cc(F)c(-c3noc(N4CCC(F)(F)CC4)n3)cc2N(Cc2ccc(Cl)cc2)C1=O [Example 197, (3R)-3-amino-5-[(4-chlorophenyl)methyl]-7-[5-(4,4-difluoro-1-piperidyl)-1,2,4-oxadiazol-3-yl]-8-fluoro-1,1-dioxo-2,3-dihydro-1λ^6,5-benzothiazepin-4-one] | 0.226 | 112 | 0.118 | – | –
N[C@H]1CS(=O)(=O)c2cc(F)c(-c3nnc(C45CNCCC4C5)o3)cc2N(Cc2ccc(Cl)cc2)C1=O (stereo partly drawn) [Example 121, (3R)-3-amino-7-[5-(3-azabicyclo[4.1.0]heptan-1-yl)-1,3,4-oxadiazol-2-yl]-5-[(4-chlorophenyl)methyl]-8-fluoro-1,1-dioxo-2,3-dihydro-1λ^6,5-benzothiazepin-4-one] | 6.37 | 72 | 4.76 | – | –
CC(C)(C)c1nnc(-c2cc3c(cc2F)S(=O)(=O)C[C@H](N)C(=O)N3Cc2ccc(OCC(F)F)cc2)o1 [Example 222, (3R)-3-amino-7-(5-tert-butyl-1,3,4-oxadiazol-2-yl)-5-[[4-(2,2-difluoroethoxy)phenyl]methyl]-8-fluoro-1,1-dioxo-2,3-dihydro-1λ^6,5-benzothiazepin-4-one] | 0.535 | 119 | 0.235 | – | –
N[C@H]1CS(=O)(=O)c2cc(F)c(-c3noc(C4(CO)CCCO4)n3)cc2N(Cc2ccc(OC(F)(F)F)cc2)C1=O (stereo partly drawn) [Example 332, (3R)-3-amino-8-fluoro-7-[5-[2-(hydroxymethyl)tetrahydrofuran-2-yl]-1,2,4-oxadiazol-3-yl]-1,1-dioxo-5-[[4-(trifluoromethoxy)phenyl]methyl]-2,3-dihydro-1λ^6,5-benzothiazepin-4-one] | 0.747 | 128 | 0.815 | – | –
CC(C)(C)c1nnc(-c2cc3c(cc2Br)S(=O)(=O)C[C@H](N)C(=O)N3Cc2ccc(Cl)cc2)o1 [Example 271, (3R)-3-amino-8-bromo-7-(5-tert-butyl-1,3,4-oxadiazol-2-yl)-5-[(4-chlorophenyl)methyl]-1,1-dioxo-2,3-dihydro-1λ^6,5-benzothiazepin-4-one] | 4.81 | 91 | 3.19 | – | –
CC(O)(c1nc(-c2cc3c(cc2F)S(=O)(=O)C[C@H](N)C(=O)N3Cc2ccc(Cl)cc2)no1)C(F)(F)F (stereo partly drawn) [Example 319, (3R)-3-amino-5-[(4-chlorophenyl)methyl]-8-fluoro-1,1-dioxo-7-[5-(2,2,2-trifluoro-1-hydroxy-1-methyl-ethyl)-1,2,4-oxadiazol-3-yl]-2,3-dihydro-1λ^6,5-benzothiazepin-4-one] | 0.458 | 113 | 0.243 | – | –
N[C@H]1CS(=O)(=O)c2ccc(-c3nnc(C(F)(F)C(F)(F)F)o3)cc2N(Cc2ccc(OC(F)(F)F)cc2)C1=O [Example 415, (3R)-3-amino-1,1-dioxo-7-[5-(1,1,2,2,2-pentafluoroethyl)-1,3,4-oxadiazol-2-yl]-5-[[4-(trifluoromethoxy)phenyl]methyl]-2,3-dihydro-1λ^6,5-benzothiazepin-4-one] | 0.443 | 64 | 6.23 | – | –
CCC(=O)N[C@H]1CS(=O)(=O)c2cc(F)c(-c3nnc(C(C)(C)C)o3)cc2N(Cc2ccc(Cl)cc2)C1=O [Example 259, N-[(3R)-7-(5-tert-butyl-1,3,4-oxadiazol-2-yl)-5-[(4-chlorophenyl)methyl]-8-fluoro-1,1,4-trioxo-2,3-dihydro-1λ^6,5-benzothiazepin-3-yl]propanamide] | 2.1 | 159 | 0.345 | – | –
CC(=O)N1CC2CC2(c2nnc(-c3cc4c(cc3F)S(=O)(=O)C[C@H](N)C(=O)N4Cc3ccc(Cl)cc3)o2)C1 (stereo partly drawn) [Example 182, (3R)-7-[5-(3-acetyl-3-azabicyclo[3.1.0]hexan-1-yl)-1,3,4-oxadiazol-2-yl]-3-amino-5-[(4-chlorophenyl)methyl]-8-fluoro-1,1-dioxo-2,3-dihydro-1λ^6,5-benzothiazepin-4-one] | 1.59 | 38 | > 10 | – | –
CCn1cc(-c2cc3c(cc2F)S(=O)(=O)C[C@H](N)C(=O)N3Cc2ccc(Cl)cc2)nn1 [Example 6, (3R)-3-amino-5-[(4-chlorophenyl)methyl]-7-(1-ethyltriazol-4-yl)-8-fluoro-1,1-dioxo-2,3-dihydro-1λ^6,5-benzothiazepin-4-one] | > 20 | 39 | > 20 | – | –
CC1(c2nnc(-c3cc4c(cc3F)S(=O)(=O)C[C@H](N)C(=O)N4Cc3ccc(Cl)cc3)o2)CNC1 [Example 102, (3R)-3-amino-5-[(4-chlorophenyl)methyl]-8-fluoro-7-[5-(3-methylazetidin-3-yl)-1,3,4-oxadiazol-2-yl]-1,1-dioxo-2,3-dihydro-1λ^6,5-benzothiazepin-4-one] | > 10 | 65 | 7.69 | – | –
CN(C)C(=O)c1nc(-c2cc3c(cc2F)S(=O)(=O)C[C@H](N)C(=O)N3Cc2ccc(Cl)cc2)no1 [Example 299, 3-[(3R)-3-amino-5-[(4-chlorophenyl)methyl]-8-fluoro-1,1,4-trioxo-2,3-dihydro-1λ^6,5-benzothiazepin-7-yl]-N,N-dimethyl-1,2,4-oxadiazole-5-carboxamide] | 2.5 | 111 | 5.01 | – | –
COC1(c2nnc(-c3ccc4c(c3)N(Cc3ccc(Cl)cc3)C(=O)[C@@H](N)CS4(=O)=O)o2)CC1 [Example 365, (3R)-3-amino-5-[(4-chlorophenyl)methyl]-7-[5-(1-methoxycyclopropyl)-1,3,4-oxadiazol-2-yl]-1,1-dioxo-2,3-dihydro-1λ^6,5-benzothiazepin-4-one] | 0.957 | 142 | 0.686 | – | –
